Drawing on ChEMBL document CHEMBL1145263, “Redox-responsive and calcium-dependent switching of glycosyldisulfide interactions with Concanavalin A” (Bioorg Med Chem Lett, 2005), this text covers IC50 and Inhibition for six molecules.

The IC50 is the concentration needed to halve the response being measured. Read a high IC50 as a need for much substance.

SMILES strings stand for the structures.

Experiment [1] can be described thus: Inhibitory concentration against mannan binding relative to concanavalin A; Using QCM(quartz crystal microbalance) assay; NA= Not active.
A short description of experiment [2]: (§1) Inhibitory concentration against mannan binding relative to concanavalin A; Using QCM(quartz crystal microbalance) assay.
A short description of experiment [3]: as §1. This is another data set of the same source.

On to `COC1O[C@H](CSSCC2O[C@H](OC)C(O)[C@@H](O)[C@@H]2O)C(O)[C@@H](O)[C@@H]1O` (stereo partly specified), for which the half-inhibitory concentration (IC50) entry in experiment [1] was “Not Active”.

`CC(=O)NC1C(O)[C@@H](O)C(CO)O[C@H]1SS[C@@H]1OC(CO)[C@H](O)[C@@H](O)C1NC(C)=O` (single isomer, unassigned): in experiment [1], the half-maximal inhibitory concentration (IC50) entry is “Not Active”.

`CC(=O)NC1[C@@H](O)[C@H](O)C(CO)O[C@H]1SS[C@@H]1OC(CO)[C@@H](O)[C@@H](O)C1NC(C)=O` (stereo in doubt): the IC50 in experiment [2] came to 2000 µM.

With `CO[C@H]1O[C@H](CO)[C@@H](O)[C@H](O)[C@@H]1O`, in experiment [2], the IC50 came out at 1100 µM.

For `OCC1O[C@H](S)C(O)[C@@H](O)[C@@H]1O` (stereo partly specified), the Inhibition in experiment [3] amounted to 10 mM.

For `OC[C@H]1OC(O)[C@@H](O)[C@@H](O)[C@@H]1O` (stereo partly drawn) [D-MANNOSE], the IC50 in experiment [2] is 5300 µM.
